Source: PubChem BioAssay (NCI)
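48-hour exposure; five concentrations; linearly interpolated endpoints. Here, GI50 denotes the concentration required for 50% inhibition of growth. TGI denotes the concentration required for complete inhibition of growth.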

Columns and labels:
Test in all cases: DTP human tumour cell line panel, 48 h
OVCAR-4 ovarian = test system: OVCAR-4 ovarian
MDA-MB-435 = test system: MDA-MB-435
OVCAR-5 ovarian = test system: OVCAR-5 ovarian
SW-620 colon = test system: SW-620 colon
COLO 205 colon = test system: COLO 205 colon
SK-MEL-5 melanoma = test system: SK-MEL-5 melanoma
UO-31 renal = test system: UO-31 renal
KM12 colon = test system: KM12 colon
PC-3 prostate = test system: PC-3 prostate
T-47D breast = test system: T-47D breast
SK-OV-3 ovarian = test system: SK-OV-3 ovarian
NCI-H522 lung = test system: NCI-H522 lung
A549 NSCLC = test system: A549 NSCLC
SN12C renal = test system: SN12C renal
DU-145 prostate = test system: DU-145 prostate
SF-295 CNS = test system: SF-295 CNS
SK-MEL-28 melanoma = test system: SK-MEL-28 melanoma
MALME-3M melanoma = test system: MALME-3M melanoma
HCT-116 colon = test system: HCT-116 colon
NCI/ADR-RES ovarian = test system: NCI/ADR-RES ovarian
MDA-MB-231 breast = test system: MDA-MB-231 breast
M14 melanoma = test system: M14 melanoma
OVCAR-3 ovarian = test system: OVCAR-3 ovarian
786-0 renal = test system: 786-0 renal
NCI-H226 lung = test system: NCI-H226 lung
HT29 colon = test system: HT29 colon
MOLT-4 leukemia = test system: MOLT-4 leukemia
SNB-19 CNS = test system: SNB-19 CNS
UACC-62 melanoma = test system: UACC-62 melanoma
IGROV1 ovarian = test system: IGROV1 ovarian
UACC-257 melanoma = test system: UACC-257 melanoma
A498 renal = test system: A498 renal
NCI-H460 lung = test system: NCI-H460 lung
OVCAR-8 ovarian = test system: OVCAR-8 ovarian
ACHN renal = test system: ACHN renal
CCRF-CEM leukemia = test system: CCRF-CEM leukemia
HL-60(TB) leukemia = test system: HL-60(TB) leukemia
LOX IMVI melanoma = test system: LOX IMVI melanoma
HS 578T breast = test system: HS 578T breast
TK-10 renal = test system: TK-10 renal
MCF7 breast = test system: MCF7 breast
NCI-H23 lung = test system: NCI-H23 lung
U251 CNS = test system: U251 CNS
HOP-62 NSCLC = test system: HOP-62 NSCLC
SK-MEL-2 melanoma = test system: SK-MEL-2 melanoma
HCT-15 colon = test system: HCT-15 colon
RXF 393 renal = test system: RXF 393 renal
BT-549 breast = test system: BT-549 breast
SF-539 CNS = test system: SF-539 CNS
EKVX NSCLC = test system: EKVX NSCLC
HCC-2998 colon = test system: HCC-2998 colon
RPMI-8226 leukemia = test system: RPMI-8226 leukemia
SNB-75 CNS = test system: SNB-75 CNS
K-562 leukemia = test system: K-562 leukemia
SF-268 CNS = test system: SF-268 CNS
HOP-92 NSCLC = test system: HOP-92 NSCLC

`CC(=O)c1cc2c(c(O)c1C)C(=O)C(=O)c1c(O)cccc1-2` was tested. Which GI50 (OVCAR-4 ovarian) did it give?
The GI50 was 199 nM.

What about the TGI (OVCAR-4 ovarian) of the same molecule?
The TGI was 636 nM.

And the GI50 (MDA-MB-435)?
The GI50 was 56.3 nM.

What about the TGI (MDA-MB-435) of the same molecule?
Its TGI is 107 nM.

What about the GI50 (OVCAR-5 ovarian) of the same molecule?
The GI50 was 526 nM.

And the TGI (OVCAR-5 ovarian)?
Its TGI is 1010 nM.

And the GI50 (SW-620 colon)?
The GI50 was 120 nM.

And the TGI (SW-620 colon)?
Its TGI is 387 nM.

What about the GI50 (COLO 205 colon) of the same molecule?
Its GI50 is 342 nM.

What about the TGI (COLO 205 colon) of the same molecule?
Its TGI is 872 nM.

And the GI50 (SK-MEL-5 melanoma)?
The GI50 was 56.5 nM.

And the TGI (SK-MEL-5 melanoma)?
Its TGI is 105 nM.

What about the GI50 (UO-31 renal) of the same molecule?
Its GI50 is 247 nM.

And the TGI (UO-31 renal)?
Its TGI is 742 nM.

What about the GI50 (KM12 colon) of the same molecule?
Its GI50 is 411 nM.

What about the TGI (KM12 colon) of the same molecule?
The TGI was 1740 nM.

What about the GI50 (PC-3 prostate) of the same molecule?
Its GI50 is 510 nM.

And the TGI (PC-3 prostate)?
The TGI was 2030 nM.

What about the GI50 (T-47D breast) of the same molecule?
The GI50 was 554 nM.

And the TGI (T-47D breast)?
Its TGI is 3170 nM.

What about the GI50 (SK-OV-3 ovarian) of the same molecule?
Its GI50 is 565 nM.

What about the TGI (SK-OV-3 ovarian) of the same molecule?
Its TGI is 1120 nM.

What about the GI50 (NCI-H522 lung) of the same molecule?
The GI50 was 281 nM.

And the TGI (NCI-H522 lung)?
Its TGI is 888 nM.

What about the GI50 (A549 NSCLC) of the same molecule?
The GI50 was 565 nM.

And the TGI (A549 NSCLC)?
Its TGI is 1240 nM.

What about the GI50 (SN12C renal) of the same molecule?
Its GI50 is 59.2 nM.

And the TGI (SN12C renal)?
Its TGI is 117 nM.

What about the GI50 (DU-145 prostate) of the same molecule?
The GI50 was 56.8 nM.

What about the TGI (DU-145 prostate) of the same molecule?
Its TGI is 102 nM.

What about the GI50 (SF-295 CNS) of the same molecule?
Its GI50 is 290 nM.

And the TGI (SF-295 CNS)?
The TGI was 763 nM.

And the GI50 (SK-MEL-28 melanoma)?
The GI50 was 163 nM.

What about the TGI (SK-MEL-28 melanoma) of the same molecule?
Its TGI is 365 nM.

What about the GI50 (MALME-3M melanoma) of the same molecule?
Its GI50 is 65.4 nM.

And the TGI (MALME-3M melanoma)?
Its TGI is 139 nM.

What about the GI50 (HCT-116 colon) of the same molecule?
The GI50 was 216 nM.

And the TGI (HCT-116 colon)?
The TGI was 506 nM.

And the GI50 (NCI/ADR-RES ovarian)?
The GI50 was 360 nM.

What about the TGI (NCI/ADR-RES ovarian) of the same molecule?
The TGI was 1390 nM.

What about the GI50 (MDA-MB-231 breast) of the same molecule?
Its GI50 is 277 nM.

What about the TGI (MDA-MB-231 breast) of the same molecule?
Its TGI is 2260 nM.

What about the GI50 (M14 melanoma) of the same molecule?
Its GI50 is 60.5 nM.

What about the TGI (M14 melanoma) of the same molecule?
The TGI was 121 nM.

What about the GI50 (OVCAR-3 ovarian) of the same molecule?
Its GI50 is 76.8 nM.

And the TGI (OVCAR-3 ovarian)?
The TGI was 280 nM.

What about the GI50 (786-0 renal) of the same molecule?
Its GI50 is 421 nM.

What about the TGI (786-0 renal) of the same molecule?
The TGI was 897 nM.

And the GI50 (NCI-H226 lung)?
The GI50 was 554 nM.

What about the TGI (NCI-H226 lung) of the same molecule?
The TGI was 1050 nM.

And the GI50 (HT29 colon)?
Its GI50 is 319 nM.

What about the TGI (HT29 colon) of the same molecule?
Its TGI is 1490 nM.

What about the GI50 (MOLT-4 leukemia) of the same molecule?
The GI50 was 348 nM.

What about the TGI (MOLT-4 leukemia) of the same molecule?
The TGI was 1440 nM.

And the GI50 (SNB-19 CNS)?
The GI50 was 163 nM.

What about the TGI (SNB-19 CNS) of the same molecule?
Its TGI is 345 nM.

What about the GI50 (UACC-62 melanoma) of the same molecule?
Its GI50 is 164 nM.

And the TGI (UACC-62 melanoma)?
The TGI was 354 nM.

What about the GI50 (IGROV1 ovarian) of the same molecule?
Its GI50 is 521 nM.

What about the TGI (IGROV1 ovarian) of the same molecule?
Its TGI is 1340 nM.

And the GI50 (UACC-257 melanoma)?
The GI50 was 188 nM.

And the TGI (UACC-257 melanoma)?
The TGI was 366 nM.

And the GI50 (A498 renal)?
The GI50 was 962 nM.

And the TGI (A498 renal)?
Its TGI is 2380 nM.

What about the GI50 (NCI-H460 lung) of the same molecule?
The GI50 was 460 nM.

What about the TGI (NCI-H460 lung) of the same molecule?
Its TGI is 1090 nM.

And the GI50 (OVCAR-8 ovarian)?
Its GI50 is 308 nM.

What about the TGI (OVCAR-8 ovarian) of the same molecule?
The TGI was 936 nM.

What about the GI50 (ACHN renal) of the same molecule?
The GI50 was 289 nM.

What about the TGI (ACHN renal) of the same molecule?
The TGI was 1120 nM.

And the GI50 (CCRF-CEM leukemia)?
Its GI50 is 460 nM.

What about the TGI (CCRF-CEM leukemia) of the same molecule?
Its TGI is greater than 100000 nM.

What about the GI50 (HL-60(TB) leukemia) of the same molecule?
The GI50 was 89.5 nM.

What about the TGI (HL-60(TB) leukemia) of the same molecule?
Its TGI is 271 nM.

And the GI50 (LOX IMVI melanoma)?
The GI50 was 53.9 nM.

What about the TGI (LOX IMVI melanoma) of the same molecule?
Its TGI is 101 nM.

And the GI50 (HS 578T breast)?
The GI50 was 248 nM.

What about the TGI (HS 578T breast) of the same molecule?
Its TGI is 1300 nM.

And the GI50 (TK-10 renal)?
Its GI50 is 560 nM.

And the TGI (TK-10 renal)?
The TGI was 1010 nM.

What about the GI50 (MCF7 breast) of the same molecule?
Its GI50 is 57.6 nM.

And the TGI (MCF7 breast)?
Its TGI is 134 nM.

What about the GI50 (NCI-H23 lung) of the same molecule?
Its GI50 is 66.6 nM.

And the TGI (NCI-H23 lung)?
Its TGI is 154 nM.

What about the GI50 (U251 CNS) of the same molecule?
Its GI50 is 247 nM.

And the TGI (U251 CNS)?
The TGI was 659 nM.

What about the GI50 (HOP-62 NSCLC) of the same molecule?
Its GI50 is 175 nM.

And the TGI (HOP-62 NSCLC)?
Its TGI is 365 nM.

What about the GI50 (SK-MEL-2 melanoma) of the same molecule?
The GI50 was 272 nM.

And the TGI (SK-MEL-2 melanoma)?
Its TGI is 922 nM.

And the GI50 (HCT-15 colon)?
Its GI50 is 113 nM.

And the TGI (HCT-15 colon)?
Its TGI is 302 nM.

What about the GI50 (RXF 393 renal) of the same molecule?
Its GI50 is 157 nM.

And the TGI (RXF 393 renal)?
Its TGI is 416 nM.

And the GI50 (BT-549 breast)?
Its GI50 is 140 nM.

What about the TGI (BT-549 breast) of the same molecule?
The TGI was 274 nM.

And the GI50 (SF-539 CNS)?
Its GI50 is 150 nM.

And the TGI (SF-539 CNS)?
Its TGI is 285 nM.

And the GI50 (EKVX NSCLC)?
Its GI50 is 673 nM.

What about the TGI (EKVX NSCLC) of the same molecule?
The TGI was 3360 nM.

What about the GI50 (HCC-2998 colon) of the same molecule?
Its GI50 is 330 nM.

And the TGI (HCC-2998 colon)?
The TGI was 776 nM.

And the GI50 (RPMI-8226 leukemia)?
The GI50 was 615 nM.

And the TGI (RPMI-8226 leukemia)?
Its TGI is 1900 nM.

And the GI50 (SNB-75 CNS)?
The GI50 was 153 nM.

What about the TGI (SNB-75 CNS) of the same molecule?
Its TGI is 301 nM.

And the GI50 (K-562 leukemia)?
The GI50 was 281 nM.

And the TGI (K-562 leukemia)?
The TGI was 1050 nM.

What about the GI50 (SF-268 CNS) of the same molecule?
The GI50 was 133 nM.

What about the TGI (SF-268 CNS) of the same molecule?
Its TGI is 471 nM.

What about the GI50 (HOP-92 NSCLC) of the same molecule?
The GI50 was 906 nM.

And the TGI (HOP-92 NSCLC)?
The TGI was 1880 nM.
